Measurements as given in patent US8859508B2, “Application of 5-methyl-1,3-benzenediol or derivatives thereof in the preparation of medicines and functional foods for treatment or prevention of depression” (Kunming Institute of Botany, Chinese Academy of Sciences, priority 2007, dated 2014).
Entries after “also recorded” stand apart in the source; their conditions may differ.

Columns and labels:
DD model mice = experiment: FST in constant darkness (DD) model mice; type: in vivo, mouse; settings: for Immobility time (s) (mean ± SEM): oral once a day for 1 week
Protocol: Kunming mice (Certificate Number: A4CXK(Chuan)2003-16) from the Institute of Experimental Animals, People's Hospital of Sichuan Province, were used. They were 3-4 weeks old at the beginning of the experiments and weighed 25-30 g. ORG was prepared as described in Example 1. Animals were divided into experimental groups with different doses, vehicle control groups, and an imipramine group (Sigma, Batch No. 106k1588) as positive control.
DD model in mice: Mice were kept under 24 h continuous dark conditions. The replacement of padding, addition of food and water, and other operations were undertaken in the condition that the intensity of red light was less than 1.0 lux. The period of this condition lasted for 28 days. In the last week, ORG was administered orally once a day for 1 week. The FST and TST were carried out 30 min after the last administration. Methods and data analysis were as described above.

serum corticosterone = experiment: Serum corticosterone level (radioimmunoassay), non-stressed and elevated platform stressed rats; type: in vivo, rat
CMS model mice = experiment: FST in chronic unpredictable mild stress (CMS) model mice; type: in vivo, mouse; settings: for Immobility time (s) (mean ± SEM): oral once a day for 7 days
Protocol: Kunming mice (Certificate Number: A4CXK(Chuan)2003-16) from the Institute of Experimental Animals, People's Hospital of Sichuan Province, were used. They were 3-4 weeks old at the beginning of experiments and weighed 25-30 g. ORG was prepared as described in Example 1. Animals were divided into experiment groups with different doses, a vehicle control group, and an imipramine group (Sigma, Batch No. 106k1588) as positive control.
CMS model: The chronic mild stresses that Kunming mice were subjected to were reversal of circadian rhythm, continuous light, cold, damp bedding, tilt cages, food and water restriction, and restraint. […] The stress period lasted for 8 weeks. In the last week, ORG was administered orally once a day for 7 consecutive days. The behavioral test was carried out 30 min after the last administration. The parameter tested was immobility time in the FST and TST in the CMS model mice. The methods of FST and TST and data analysis were as described above.

Kunming mice [1] = experiment: Forced swim test (FST) in mice
rats = experiment: Subacute toxicity test of ORG in rats; type: in vivo
Protocol: Rats (Certificate Number: A4CXK(Chuan)2003-16) from the Institute of Experimental Animals, People's Hospital of Sichuan Province, were used. Their weight was 250-300 g. ORG was prepared as described in Example 1.
There was no significant difference between the two groups.

Kunming mice [2] = experiment: Tail suspension test (TST) in mice
[3] = Acute toxicity test of ORG in mice; type: in vivo; settings: mouse, in vivo, 1750 mg/kg; acute toxicity test, Kunming mice, oral; read-out: median toxic dose (TD50)
Protocol: (§1) Kunming mice (Certificate Number: A4CXK(Chuan)2003-16) from the Institute of Experimental Animals, People's Hospital of Sichuan Province, were used. They were 3-4 weeks old and at the beginning of the experiment and weighed 25-30 g. ORG was prepared as described in Example 1. ORG (1750 mg) was dissolved in 10 ml NS to give a concentration of 175 mg/ml. Mice were divided into two groups, the ORG group for evaluation was given ORG and a group was treated with NS for vehicle control. ORG and NS were given to each group orally at a volume of 0.1 ml/10 g.

Kunming mice [4] = experiment: Acute toxicity test of ORG in mice; type: in vivo; settings: mice, 1750 mg/kg oral
Protocol: as §1

[5] = 1750 mg/kg orally once per day for 14 consecutive days

Cc1cc(O)cc(OC2OC(CO)C(O)C(O)C2O)c1 [ORG, orcinol-1-O-β-D-glucopyranoside]
therapeutic index = TD50÷ED50 (DD model mice; DD mice): > 1182
Immobility time (s) (mean ± SEM) (DD model mice; DD mice, 2.5 mg/kg): 174.27 ± 11.89 s
Immobility time (s) (mean ± SEM) (DD model mice; DD mice, 5 mg/kg): 161.70 ± 14.89 s
Immobility time (s) (mean ± SEM) (DD model mice; DD mice, 10 mg/kg): 151.86 ± 8.89 s
Immobility time (s) (mean ± SEM) (DD model mice; DD mice, 40 mg/kg): 156.60 ± 13.86 s
Immobility time (s) (mean ± SEM) (DD model mice; DD mice, test 30 min after last dose, 1.25 mg/kg): 180.27 ± 10.36 s
dose of the best efficacy (DD model mice; DD model mice, ORG oral): 10 mg/kg
ED50 (DD model mice; Mus musculus, DD model mice, ORG oral): ~1.48 mg/kg
Concentration of serum corticosterone (ng/ml) (mean ± SEM) (serum corticosterone; non-stress rats, i.p., 3.5 mg/kg): 166.06 ± 41.90 ng/mL
Concentration of serum corticosterone (ng/ml) (mean ± SEM) (serum corticosterone; non-stress rats, i.p., 14 mg/kg): 70.04 ± 14.75 ng/mL
Concentration of serum corticosterone (ng/ml) (mean ± SEM) (serum corticosterone; non-stress rats, i.p., 28 mg/kg): 63.13 ± 22.21 ng/mL
Concentration of serum corticosterone (ng/ml) (mean ± SEM) (serum corticosterone; non-stress rats, i.p., blood 1 h after injection, 0.875 mg/kg): 209.02 ± 52.77 ng/mL
Concentration of serum corticosterone (ng/ml) (mean ± SEM) (serum corticosterone; stress rats (elevated platform 30 min, 1 h after i.p. injection), 0.875 mg/kg): 349.85 ± 61.75 ng/mL
Concentration of serum corticosterone (ng/ml) (mean ± SEM) (serum corticosterone; stress rats, i.p., 3.5 mg/kg): 263.63 ± 49.14 ng/mL
Concentration of serum corticosterone (ng/ml) (mean ± SEM) (serum corticosterone; stress rats, i.p., 14 mg/kg): 237.63 ± 32.45 ng/mL
Concentration of serum corticosterone (ng/ml) (mean ± SEM) (serum corticosterone; stress rats, i.p., 28 mg/kg): 137.41 ± 26.84 ng/mL
therapeutic index (TI) = TD50÷ED50 (CMS model mice; CMS mice): > 2160
Immobility time (s) (mean ± SEM) (CMS model mice; CMS mice, 2.5 mg/kg): 177.00 ± 11.78 s
Immobility time (s) (mean ± SEM) (CMS model mice; CMS mice, 5 mg/kg): 177.50 ± 12.39 s
Immobility time (s) (mean ± SEM) (CMS model mice; CMS mice, 10 mg/kg): 170.84 ± 10.48 s
Immobility time (s) (mean ± SEM) (CMS model mice; CMS mice, 20 mg/kg): 164.95 ± 11.36 s
Immobility time (s) (mean ± SEM) (CMS model mice; CMS mice, test 30 min after last dose, 1.25 mg/kg): 190.90 ± 12.94 s
best dose for the antidepressant effect (CMS model mice; CMS model mice, ORG oral): 20 mg/kg
ED50 (CMS model mice; Mus musculus, CMS model mice, ORG oral): 0.81 mg/kg
dose of the best efficacy (Kunming mice [1]; FST mice, ORG i.g. 24 h and 5 h before test): 3 mg/kg
Immobility time (s) (mean ± SEM) (Kunming mice [1]; FST mice, i.g. 24 h and 5 h before test, 0.093 mg/kg): 169.35 ± 4.32 s
Immobility time (s) (mean ± SEM) (Kunming mice [1]; FST mice, i.g., 0.186 mg/kg): 155.30 ± 9.19 s
Immobility time (s) (mean ± SEM) (Kunming mice [1]; FST mice, i.g., 0.3725 mg/kg): 137.57 ± 6.41 s
Immobility time (s) (mean ± SEM) (Kunming mice [1]; FST mice, i.g., 0.75 mg/kg): 139.45 ± 7.04 s
Immobility time (s) (mean ± SEM) (Kunming mice [1]; FST mice, i.g., 1.5 mg/kg): 127.23 ± 6.63 s
Immobility time (s) (mean ± SEM) (Kunming mice [1]; FST mice, i.g., 3 mg/kg): 114.41 ± 6.23 s
Immobility time (s) (mean ± SEM) (Kunming mice [1]; FST mice, i.g., 6 mg/kg): 129.76 ± 5.99 s
Immobility time (s) (mean ± SEM) (Kunming mice [1]; FST mice, i.g., 12 mg/kg): 122.71 ± 5.56 s
Immobility time (s) (mean ± SEM) (Kunming mice [1]; FST mice, i.g., 24 mg/kg): 121.57 ± 6.13 s
Immobility time (s) (mean ± SEM) (Kunming mice [1]; FST mice, i.g., 48 mg/kg): 135.36 ± 4.60 s
Immobility time (s) (mean ± SEM) (Kunming mice [1]; FST mice, i.g., 96 mg/kg): 145.34 ± 5.39 s
Immobility (% NS) (mean ± SEM) (Kunming mice [1]; FST mice, oral 3 mg/kg twice in 24 h, recorded 5 h after last treatment (Table 7)): 64.03 ± 7.20 % NS
onset of antidepressant effect after the second administration (Kunming mice [1]; FST mice, oral 3 mg/kg twice, 19 h apart): 2.5 h
maintenance of antidepressant effect (Kunming mice [1]; FST mice, oral 3 mg/kg twice, 19 h apart, time after second administration): at least 72 h
Immobility (% NS) (mean ± SEM) (Kunming mice [1]; FST mice, oral 3 mg/kg, 1 administration in 24 h, recorded 5 h after last treatment): 83.57 ± 6.66 % NS
Immobility (% NS) (mean ± SEM) (Kunming mice [1]; FST mice, oral 3 mg/kg, 2 administrations in 24 h, recorded 5 h after last treatment (Table 6)): 64.98 ± 5.96 % NS
Immobility (% NS) (mean ± SEM) (Kunming mice [1]; FST mice, oral 3 mg/kg, 3 administrations in 24 h, recorded 5 h after last treatment): 65.65 ± 9.67 % NS
Immobility (% NS) (mean ± SEM) (Kunming mice [1]; FST mice, oral 3 mg/kg, 4 administrations in 24 h, recorded 5 h after last treatment): 89.81 ± 6.50 % NS
Immobility (% NS) (mean ± SEM) (Kunming mice [1]; FST mice, oral 3 mg/kg, 5 administrations in 24 h, recorded 5 h after last treatment): 91.26 ± 5.93 % NS
Immobility (% NS) (mean ± SEM) (Kunming mice [1]; FST mice, oral 6 mg/kg once in 24 h, recorded 5 h after treatment (Table 7)): 80.70 ± 4.64 % NS
Immobility (% NS) (mean ± SEM) (Kunming mice [1]; FST mice, oral, dose 6 mg/kg (3 mg/kg twice, 19 h apart), 2 weeks after last administration): 99.54 ± 5.54 % NS
Immobility (% NS) (mean ± SEM) (Kunming mice [1]; FST mice, oral, dose 6 mg/kg (3 mg/kg twice, 19 h apart), 2.5 h after last administration): 73.63 ± 4.21 % NS
Immobility (% NS) (mean ± SEM) (Kunming mice [1]; FST mice, oral, dose 6 mg/kg (3 mg/kg twice, 19 h apart), 5 h after last administration): 71.92 ± 6.05 % NS
Immobility (% NS) (mean ± SEM) (Kunming mice [1]; FST mice, oral, dose 6 mg/kg (3 mg/kg twice, 19 h apart), 24 h after last administration): 62.83 ± 6.59 % NS
Immobility (% NS) (mean ± SEM) (Kunming mice [1]; FST mice, oral, dose 6 mg/kg (3 mg/kg twice, 19 h apart), 72 h after last administration): 77.33 ± 6.07 % NS
ED50 (Kunming mice [1]; Mus musculus): ~0.22 mg/kg
therapeutic index (TI) = TD50÷ED50 (Kunming mice [1]; mice, FST): > 7955
subacute toxicity: appearance, behavior, mental status, appetite, hair, color, breathing (rats; [5]): nothing abnormal was found
subacute toxicity: survival (rats; [5]): All rats survived
subacute toxicity: weight gain (rats; [5]): the weight gain was normal
subacute toxicity: pathological section of visceral organs (rats; 1750 mg/kg orally once per day for 14 days, sacrificed on day 14): no evident abnormalities
ED50 (Kunming mice [2]; Mus musculus): ~0.73 mg/kg
dose of the best efficacy (Kunming mice [2]; TST mice, ORG i.g. 24 h and 5 h before test): 12 mg/kg
Immobility time (s) (mean ± SEM) (Kunming mice [2]; TST mice, i.g. 24 h and 5 h before test, 0.1875 mg/kg): 161.70 ± 6.89 s
Immobility time (s) (mean ± SEM) (Kunming mice [2]; TST mice, i.g., 0.375 mg/kg): 155.68 ± 6.77 s
Immobility time (s) (mean ± SEM) (Kunming mice [2]; TST mice, i.g., 0.5 mg/kg): 125.30 ± 6.93 s
Immobility time (s) (mean ± SEM) (Kunming mice [2]; TST mice, i.g., 0.75 mg/kg): 117.33 ± 6.56 s
Immobility time (s) (mean ± SEM) (Kunming mice [2]; TST mice, i.g., 1.5 mg/kg): 109.27 ± 6.81 s
Immobility time (s) (mean ± SEM) (Kunming mice [2]; TST mice, i.g., 3 mg/kg): 98.07 ± 5.95 s
Immobility time (s) (mean ± SEM) (Kunming mice [2]; TST mice, i.g., 6 mg/kg): 89.73 ± 5.02 s
Immobility time (s) (mean ± SEM) (Kunming mice [2]; TST mice, i.g., 12 mg/kg): 77.67 ± 5.33 s
Immobility time (s) (mean ± SEM) (Kunming mice [2]; TST mice, i.g., 24 mg/kg): 91.03 ± 7.44 s
Immobility time (s) (mean ± SEM) (Kunming mice [2]; TST mice, i.g., 48 mg/kg): 100.20 ± 10.46 s
Immobility time (s) (mean ± SEM) (Kunming mice [2]; TST mice, i.g., 96 mg/kg): 107.68 ± 8.85 s
therapeutic index (TI) = TD50÷ED50 (Kunming mice [2]; mice, TST): > 2397
TD50 [3]: > 1750 mg/kg
acute toxicity: survival (Kunming mice [4]; 14 days): All mice survived
acute toxicity: weight gain (Kunming mice [4]; 14 days): the weight gain was normal
acute toxicity: appearance, behavior, mental status, appetite, hair, color, breathing (ethological investigation) (Kunming mice [4]; observed for 14 days, 1750 mg/kg): did not find abnormalities; also recorded: nothing abnormal was found
acute toxicity: pathological section of visceral organs (Kunming mice [4]; sacrificed on day 14): no evident abnormalities
